According to the NIST ThermoML archive (doi:10.1021/acs.jced.7b00773):
± gives the expanded uncertainty stated by the source.

Conditions: Liquid; for viscosity: Concentric cylinders viscometry

CCn1cc[n+](C)c1.N#C[B-](C#N)(C#N)C#N [1-ethyl-3-methylimidazolium tetracyanoborate]
viscosity (293.15 K, 100 kPa): 22.11 ± 1 mPa·s
mass density (293.15 K, 100 kPa, Vibrating tube method): 1040.5 ± 2.3 kg/m3
viscosity (303.15 K, 100 kPa): 15.38 ± 0.71 mPa·s
mass density (303.15 K, 100 kPa, Vibrating tube method): 1032.7 ± 2.3 kg/m3
mass density (311.8 K, 10000 kPa, Bellows volumetry): 1031.2 ± 2.6 kg/m3
mass density (311.8 K, 20000 kPa, Bellows volumetry): 1036.6 ± 2.6 kg/m3
mass density (311.8 K, 30000 kPa, Bellows volumetry): 1041.7 ± 2.6 kg/m3
mass density (311.8 K, 40000 kPa, Bellows volumetry): 1046.6 ± 2.6 kg/m3
mass density (311.8 K, 50000 kPa, Bellows volumetry): 1051.3 ± 2.6 kg/m3
mass density (311.8 K, 60000 kPa, Bellows volumetry): 1055.9 ± 2.6 kg/m3
mass density (311.8 K, 70000 kPa, Bellows volumetry): 1060.3 ± 2.6 kg/m3
mass density (311.8 K, 80000 kPa, Bellows volumetry): 1064.6 ± 2.6 kg/m3
mass density (311.8 K, 90000 kPa, Bellows volumetry): 1068.7 ± 2.6 kg/m3
mass density (311.8 K, 100000 kPa, Bellows volumetry): 1072.8 ± 2.6 kg/m3
mass density (311.8 K, 110000 kPa, Bellows volumetry): 1076.8 ± 2.6 kg/m3
mass density (311.8 K, 120000 kPa, Bellows volumetry): 1080.6 ± 2.6 kg/m3
mass density (311.8 K, 130000 kPa, Bellows volumetry): 1084.3 ± 2.6 kg/m3
mass density (311.8 K, 140000 kPa, Bellows volumetry): 1088 ± 2.6 kg/m3
mass density (311.8 K, 150000 kPa, Bellows volumetry): 1091.6 ± 2.6 kg/m3
mass density (311.8 K, 160000 kPa, Bellows volumetry): 1095.1 ± 2.6 kg/m3
mass density (311.8 K, 170000 kPa, Bellows volumetry): 1098.5 ± 2.6 kg/m3
mass density (311.8 K, 180000 kPa, Bellows volumetry): 1101.9 ± 2.6 kg/m3
mass density (311.8 K, 190000 kPa, Bellows volumetry): 1105.1 ± 2.6 kg/m3
mass density (311.8 K, 200000 kPa, Bellows volumetry): 1108.5 ± 2.6 kg/m3
viscosity (313.15 K, 100 kPa): 11.23 ± 0.52 mPa·s
mass density (313.15 K, 100 kPa, Vibrating tube method): 1024.9 ± 2.3 kg/m3
viscosity (323.15 K, 100 kPa): 8.55 ± 0.4 mPa·s
mass density (323.15 K, 100 kPa, Vibrating tube method): 1017.2 ± 2.3 kg/m3
mass density (331.7 K, 10000 kPa, Bellows volumetry): 1016.3 ± 2.6 kg/m3
mass density (331.7 K, 20000 kPa, Bellows volumetry): 1021.9 ± 2.6 kg/m3
mass density (331.7 K, 30000 kPa, Bellows volumetry): 1027.4 ± 2.6 kg/m3
mass density (331.7 K, 40000 kPa, Bellows volumetry): 1032.6 ± 2.6 kg/m3
mass density (331.7 K, 50000 kPa, Bellows volumetry): 1037.5 ± 2.6 kg/m3
mass density (331.7 K, 60000 kPa, Bellows volumetry): 1042.3 ± 2.6 kg/m3
mass density (331.7 K, 70000 kPa, Bellows volumetry): 1046.9 ± 2.6 kg/m3
mass density (331.7 K, 80000 kPa, Bellows volumetry): 1051.4 ± 2.6 kg/m3
mass density (331.7 K, 90000 kPa, Bellows volumetry): 1055.7 ± 2.6 kg/m3
mass density (331.7 K, 100000 kPa, Bellows volumetry): 1059.9 ± 2.6 kg/m3
mass density (331.7 K, 110000 kPa, Bellows volumetry): 1064 ± 2.6 kg/m3
mass density (331.7 K, 120000 kPa, Bellows volumetry): 1068 ± 2.6 kg/m3
mass density (331.7 K, 130000 kPa, Bellows volumetry): 1071.9 ± 2.6 kg/m3
mass density (331.7 K, 140000 kPa, Bellows volumetry): 1075.6 ± 2.6 kg/m3
mass density (331.7 K, 150000 kPa, Bellows volumetry): 1079.2 ± 2.6 kg/m3
mass density (331.7 K, 160000 kPa, Bellows volumetry): 1082.9 ± 2.6 kg/m3
mass density (331.7 K, 170000 kPa, Bellows volumetry): 1086.4 ± 2.6 kg/m3
mass density (331.7 K, 180000 kPa, Bellows volumetry): 1089.9 ± 2.6 kg/m3
mass density (331.7 K, 190000 kPa, Bellows volumetry): 1093.3 ± 2.6 kg/m3
mass density (331.7 K, 200000 kPa, Bellows volumetry): 1096.7 ± 2.6 kg/m3
viscosity (333.15 K, 100 kPa): 6.751 ± 0.31 mPa·s
mass density (333.15 K, 100 kPa, Vibrating tube method): 1009.6 ± 2.3 kg/m3
viscosity (343.15 K, 100 kPa): 5.473 ± 0.25 mPa·s
mass density (343.15 K, 100 kPa, Vibrating tube method): 1002 ± 2.3 kg/m3
mass density (351.8 K, 10000 kPa, Bellows volumetry): 1001.6 ± 2.6 kg/m3
mass density (351.8 K, 20000 kPa, Bellows volumetry): 1007.5 ± 2.6 kg/m3
mass density (351.8 K, 30000 kPa, Bellows volumetry): 1013.3 ± 2.6 kg/m3
mass density (351.8 K, 40000 kPa, Bellows volumetry): 1018.7 ± 2.6 kg/m3
mass density (351.8 K, 50000 kPa, Bellows volumetry): 1024 ± 2.6 kg/m3
mass density (351.8 K, 60000 kPa, Bellows volumetry): 1029 ± 2.6 kg/m3
mass density (351.8 K, 70000 kPa, Bellows volumetry): 1033.8 ± 2.6 kg/m3
mass density (351.8 K, 80000 kPa, Bellows volumetry): 1038.5 ± 2.6 kg/m3
mass density (351.8 K, 90000 kPa, Bellows volumetry): 1043 ± 2.6 kg/m3
mass density (351.8 K, 100000 kPa, Bellows volumetry): 1047.3 ± 2.6 kg/m3
mass density (351.8 K, 110000 kPa, Bellows volumetry): 1051.5 ± 2.6 kg/m3
mass density (351.8 K, 120000 kPa, Bellows volumetry): 1055.7 ± 2.6 kg/m3
mass density (351.8 K, 130000 kPa, Bellows volumetry): 1059.7 ± 2.6 kg/m3
mass density (351.8 K, 140000 kPa, Bellows volumetry): 1063.6 ± 2.6 kg/m3
mass density (351.8 K, 150000 kPa, Bellows volumetry): 1067.4 ± 2.6 kg/m3
mass density (351.8 K, 160000 kPa, Bellows volumetry): 1071.2 ± 2.6 kg/m3
mass density (351.8 K, 170000 kPa, Bellows volumetry): 1074.8 ± 2.6 kg/m3
mass density (351.8 K, 180000 kPa, Bellows volumetry): 1078.4 ± 2.6 kg/m3
mass density (351.8 K, 190000 kPa, Bellows volumetry): 1081.9 ± 2.6 kg/m3
mass density (351.8 K, 200000 kPa, Bellows volumetry): 1085.3 ± 2.6 kg/m3
viscosity (353.15 K, 100 kPa): 4.537 ± 0.21 mPa·s
mass density (353.15 K, 100 kPa, Vibrating tube method): 994.8 ± 2.3 kg/m3
viscosity (363.15 K, 100 kPa): 3.833 ± 0.18 mPa·s
mass density (363.15 K, 100 kPa, Vibrating tube method): 987.5 ± 2.3 kg/m3
mass density (372 K, 10000 kPa, Bellows volumetry): 987.2 ± 2.6 kg/m3
mass density (372 K, 20000 kPa, Bellows volumetry): 993.6 ± 2.6 kg/m3
mass density (372 K, 30000 kPa, Bellows volumetry): 999.6 ± 2.6 kg/m3
mass density (372 K, 40000 kPa, Bellows volumetry): 1005.4 ± 2.6 kg/m3
mass density (372 K, 50000 kPa, Bellows volumetry): 1010.8 ± 2.6 kg/m3
mass density (372 K, 60000 kPa, Bellows volumetry): 1016 ± 2.6 kg/m3
mass density (372 K, 70000 kPa, Bellows volumetry): 1021 ± 2.6 kg/m3
mass density (372 K, 80000 kPa, Bellows volumetry): 1025.9 ± 2.6 kg/m3
mass density (372 K, 90000 kPa, Bellows volumetry): 1030.5 ± 2.6 kg/m3
mass density (372 K, 100000 kPa, Bellows volumetry): 1035.1 ± 2.6 kg/m3
mass density (372 K, 110000 kPa, Bellows volumetry): 1039.5 ± 2.6 kg/m3
mass density (372 K, 120000 kPa, Bellows volumetry): 1043.8 ± 2.6 kg/m3
mass density (372 K, 130000 kPa, Bellows volumetry): 1048 ± 2.6 kg/m3
mass density (372 K, 140000 kPa, Bellows volumetry): 1052.1 ± 2.6 kg/m3
mass density (372 K, 150000 kPa, Bellows volumetry): 1055.9 ± 2.6 kg/m3
mass density (372 K, 160000 kPa, Bellows volumetry): 1059.8 ± 2.6 kg/m3
mass density (372 K, 170000 kPa, Bellows volumetry): 1063.5 ± 2.6 kg/m3
mass density (372 K, 180000 kPa, Bellows volumetry): 1067.2 ± 2.6 kg/m3
mass density (372 K, 190000 kPa, Bellows volumetry): 1070.9 ± 2.6 kg/m3
mass density (372 K, 200000 kPa, Bellows volumetry): 1074.4 ± 2.6 kg/m3
viscosity (373.15 K, 100 kPa): 3.289 ± 0.15 mPa·s
mass density (373.15 K, 100 kPa, Vibrating tube method): 980.3 ± 2.3 kg/m3
mass density (392.1 K, 10000 kPa, Bellows volumetry): 973 ± 2.6 kg/m3
mass density (392.1 K, 20000 kPa, Bellows volumetry): 979.8 ± 2.6 kg/m3
mass density (392.1 K, 30000 kPa, Bellows volumetry): 986.2 ± 2.6 kg/m3
mass density (392.1 K, 40000 kPa, Bellows volumetry): 992.2 ± 2.6 kg/m3
mass density (392.1 K, 50000 kPa, Bellows volumetry): 998 ± 2.6 kg/m3
mass density (392.1 K, 60000 kPa, Bellows volumetry): 1003.4 ± 2.6 kg/m3
mass density (392.1 K, 70000 kPa, Bellows volumetry): 1008.6 ± 2.6 kg/m3
mass density (392.1 K, 80000 kPa, Bellows volumetry): 1013.8 ± 2.6 kg/m3
mass density (392.1 K, 90000 kPa, Bellows volumetry): 1018.6 ± 2.6 kg/m3
mass density (392.1 K, 100000 kPa, Bellows volumetry): 1023.3 ± 2.6 kg/m3
mass density (392.1 K, 110000 kPa, Bellows volumetry): 1028 ± 2.6 kg/m3
mass density (392.1 K, 120000 kPa, Bellows volumetry): 1032.4 ± 2.6 kg/m3
mass density (392.1 K, 130000 kPa, Bellows volumetry): 1036.6 ± 2.6 kg/m3
mass density (392.1 K, 140000 kPa, Bellows volumetry): 1040.8 ± 2.6 kg/m3
mass density (392.1 K, 150000 kPa, Bellows volumetry): 1044.9 ± 2.6 kg/m3
mass density (392.1 K, 160000 kPa, Bellows volumetry): 1048.8 ± 2.6 kg/m3
mass density (392.1 K, 170000 kPa, Bellows volumetry): 1052.8 ± 2.6 kg/m3
mass density (392.1 K, 180000 kPa, Bellows volumetry): 1056.5 ± 2.6 kg/m3
mass density (392.1 K, 190000 kPa, Bellows volumetry): 1060.2 ± 2.6 kg/m3
mass density (392.1 K, 200000 kPa, Bellows volumetry): 1063.9 ± 2.6 kg/m3
mass density (412.2 K, 10000 kPa, Bellows volumetry): 959.2 ± 2.6 kg/m3
mass density (412.2 K, 20000 kPa, Bellows volumetry): 966.3 ± 2.6 kg/m3
mass density (412.2 K, 30000 kPa, Bellows volumetry): 973 ± 2.6 kg/m3
mass density (412.2 K, 40000 kPa, Bellows volumetry): 979.4 ± 2.6 kg/m3
mass density (412.2 K, 50000 kPa, Bellows volumetry): 985.4 ± 2.6 kg/m3
mass density (412.2 K, 60000 kPa, Bellows volumetry): 991.1 ± 2.6 kg/m3
mass density (412.2 K, 70000 kPa, Bellows volumetry): 996.6 ± 2.6 kg/m3
mass density (412.2 K, 80000 kPa, Bellows volumetry): 1001.9 ± 2.6 kg/m3
mass density (412.2 K, 90000 kPa, Bellows volumetry): 1007 ± 2.6 kg/m3
mass density (412.2 K, 100000 kPa, Bellows volumetry): 1011.9 ± 2.6 kg/m3
mass density (412.2 K, 110000 kPa, Bellows volumetry): 1016.6 ± 2.6 kg/m3
mass density (412.2 K, 120000 kPa, Bellows volumetry): 1021.2 ± 2.6 kg/m3
mass density (412.2 K, 130000 kPa, Bellows volumetry): 1025.7 ± 2.6 kg/m3
mass density (412.2 K, 140000 kPa, Bellows volumetry): 1030 ± 2.6 kg/m3
mass density (412.2 K, 150000 kPa, Bellows volumetry): 1034.1 ± 2.6 kg/m3
mass density (412.2 K, 160000 kPa, Bellows volumetry): 1038.2 ± 2.6 kg/m3
mass density (412.2 K, 170000 kPa, Bellows volumetry): 1042.2 ± 2.6 kg/m3
mass density (412.2 K, 180000 kPa, Bellows volumetry): 1046.1 ± 2.6 kg/m3
mass density (412.2 K, 190000 kPa, Bellows volumetry): 1049.9 ± 2.6 kg/m3
mass density (412.2 K, 200000 kPa, Bellows volumetry): 1053.6 ± 2.6 kg/m3
